Source: patent publication US6274590A, “Method of treating skin related conditions” (G. D. Searle & Co., priority 2000, dated 2001)
One block for each molecule: values may come before it.

What was measured:
prostaglandin synthetase = details: U.S. Pat. No. 4,820,827; cited from earlier work
[1] = reported in cited literature or patents; cited from earlier work
COX II enzyme = details: J. Biol. Chem., 268, 6610 (1993); cited from earlier work
[2] = tested on: carrageenan-induced hyperalgesic foot withdrawal; experiment: Rat Carrageenan-induced Analgesia Test; assay type: in vivo, rat (male Sprague-Dawley); details: oral, 3 h after carrageenan
Experimental: (§1) The carrageenan foot edema test was performed with materials, reagents and procedures essentially as described by Winter, et al., (Proc. Soc. Exp. Biol. Med., 111, 544 (1962) Male Sprague-Dawlev rats were selected in each group so that the average body weight was as close as possible. Rats were fasted with free access to water for over sixteen hours prior to the test. The rats were dosed orally (1 mL) with compounds suspended in vehicle containing 0.5% methylcellulose and 0.025% surfactant, or with vehicle alone. one hour later a subplantar injection of 0.1 mL of 1% solution of carrageenan/sterile 0.9% saline was administered and the volume of the injected foot was measured with a displacement plethysmometer connected to a pressure transducer with a digital indicator. Three hours after the injection of the carrageenan, the volume of the foot was again measured. The average foot swelling in a group of drug-treated animals was compared with that of a group of placebo-treated animals and the percentage inhibition of edema was determined (Otterness and Bliven, Laboratory Models for Testing NSAIDs, in Non-steroidal Anti-Inflammatory Drugs, (J. Lombardino, ed. 1985)).
The analgesia test using rat carrageenan was performed with materials, reagents and procedures essentially as described by Hargreaves, et al., (Pain, 32, 77 (1988)). Male Sprague-Dawley rats were treated as previously described, for the Carrageenan Foot Pad Edema test. Three hours after the injection of the carrageenan, the rats were placed in a special plexiglass container with a transparent floor having a high intensity lamp as a radiant heat source, positionable under the floor. After an initial twenty minute period, thermal stimulation was begun on either the injected foot or on the contralateral uninjected foot. […] The time until the rat withdraws its foot was then measured. The withdrawal latency in seconds was determined for the control and drug-treated groups, and percent inhibition of the hyperalgesic foot withdrawal determined.

carrageenan foot edema = experiment: Rat Carrageenan Foot Pad Edema Test; assay type: in vivo, rat (male Sprague-Dawley); details: @ 10 mg/kg body weight, oral, 3 h after carrageenan
Experimental: as §1

Murine COX I = biological target: T1, Murine COX I (Mus musculus, UniProt P22437); experiment: COX I activity in vitro (PGE2 ELISA, recombinant enzyme); assay type: biochemical; details: arachidonic acid 10 μM, read-out: Murine COX I ID50
T1 construct: A 2.0 kb fragment containing the coding region; made in house; host or cells: SF9 insect cells (recombinant baculovirus, pVL1393)
T1 sequence (P22437 27-602): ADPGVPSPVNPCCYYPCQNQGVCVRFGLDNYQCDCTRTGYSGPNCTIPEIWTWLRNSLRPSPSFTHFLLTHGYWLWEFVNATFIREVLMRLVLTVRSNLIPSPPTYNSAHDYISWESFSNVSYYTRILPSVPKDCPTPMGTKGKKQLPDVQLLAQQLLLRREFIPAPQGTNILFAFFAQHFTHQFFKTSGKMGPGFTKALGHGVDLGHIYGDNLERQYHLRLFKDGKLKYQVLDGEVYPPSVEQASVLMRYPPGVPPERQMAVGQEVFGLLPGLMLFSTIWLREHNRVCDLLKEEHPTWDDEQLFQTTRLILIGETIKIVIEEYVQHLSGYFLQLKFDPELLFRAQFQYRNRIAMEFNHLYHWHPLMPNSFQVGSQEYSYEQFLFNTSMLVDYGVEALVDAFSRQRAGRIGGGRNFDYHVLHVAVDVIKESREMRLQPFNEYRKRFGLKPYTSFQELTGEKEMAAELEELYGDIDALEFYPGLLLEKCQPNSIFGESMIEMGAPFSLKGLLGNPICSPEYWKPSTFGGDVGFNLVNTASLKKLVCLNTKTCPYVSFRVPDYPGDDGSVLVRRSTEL
Experimental: (§2) A 2.0 kb fragment containing the coding region of either human or murine COX-I or human or murine COX-II was cloned into a BamH1 site of the baculovirus transfer vector pVL1393 to generate the baculovirus transfer vector. Recombinant baculoviruses were isolated by transfecting 4 μg of baculovirus transfer vector DNA into SF9 cells (2×10e8) along with 200 ng of linearized baculovirus plasmid DNA by the calcium phosphate method. Recombinant viruses were purified by three rounds of plaque purification and high titer (10E7-10E8 pfu/ml) stocks of virus were prepared. For large scale production, SF9 insect cells were infected in 10 liter fermentors (Bioprocess group) 0.5×10^6 /ml) with the recombinant baculovirus stock such that the multiplicity of infection was 0.1. […] The homogenate was centrifuged at 10,000×G for 30 minutes, and the resultant supernatant was stored at -80° C. before being assayed for COX activity.
(§3) COX activity was assayed as PGE2 formed/μg protein/time using an ELISA to detect the prostaglandin released. CHAPS-solubilized insect cell membranes containing the appropriate COX enzyme were incubated in a potassium phosphate buffer (50 mM, pH 8.0) containing epinephrine, phenol, and heme with the addition of arachidonic acid (10 μM). […] The PGE2 formed was measured by standard ELISA technology (Cayman Chemical).

Murine COX II = biological target: T2, Murine COX II (Mus musculus, UniProt Q05769); experiment: COX II activity in vitro (PGE2 ELISA, recombinant enzyme); assay type: biochemical; details: arachidonic acid 10 μM, read-out: Murine COX II ID50
T2 construct: A 2.0 kb fragment containing the coding region; made in house; host or cells: SF9 insect cells (recombinant baculovirus, pVL1393)
T2 sequence (Q05769 18-604): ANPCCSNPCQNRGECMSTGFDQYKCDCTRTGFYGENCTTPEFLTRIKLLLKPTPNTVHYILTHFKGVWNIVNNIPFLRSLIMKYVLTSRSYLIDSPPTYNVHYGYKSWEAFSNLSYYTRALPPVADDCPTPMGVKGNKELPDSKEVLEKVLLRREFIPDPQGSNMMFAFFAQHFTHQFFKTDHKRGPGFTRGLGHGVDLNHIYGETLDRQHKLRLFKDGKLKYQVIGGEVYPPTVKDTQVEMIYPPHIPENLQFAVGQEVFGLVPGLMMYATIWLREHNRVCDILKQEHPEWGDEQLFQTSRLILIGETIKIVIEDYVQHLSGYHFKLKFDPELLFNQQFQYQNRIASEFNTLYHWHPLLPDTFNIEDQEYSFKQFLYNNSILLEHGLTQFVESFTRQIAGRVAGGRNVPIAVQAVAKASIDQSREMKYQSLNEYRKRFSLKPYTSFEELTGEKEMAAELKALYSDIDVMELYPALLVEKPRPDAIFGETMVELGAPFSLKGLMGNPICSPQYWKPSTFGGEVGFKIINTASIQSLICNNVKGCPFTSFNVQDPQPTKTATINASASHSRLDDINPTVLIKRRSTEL
Experimental: as §2, §3

[3] = Gen. Pharmac., 24, 105 (1993); cited from earlier work

Structure (SMILES): CSc1ccc(-c2sc(Br)cc2-c2ccc(F)cc2)cc1 [5-bromo-2-(4-methylthiophenyl)-3-(4-fluorophenyl)thiophene]
- prostaglandin synthetase inhibitory activity (prostaglandin synthetase): prostaglandin synthetase inhibitory activity
- antiinflammatory activity [1]: antiinflammatory

Structure (SMILES): COc1ccc2cc(CC(=O)O)ccc2c1 [6-methoxy-2-napthylacetic acid]
- inhibition of the COX II enzyme (COX II enzyme): selectively inhibit the COX II enzyme

Structure (SMILES): CS(=O)(=O)c1ccc(-c2cscc2-c2ccc(F)cc2)cc1 [Example 1, 3-(4-Methylsulfonylphenyl)-4-(4-fluorophenyl)thiophene]
- ANALGESIA % Inhibition ([2]; @ 20 mg/kg body weight): 8%

Structure (SMILES): CS(=O)(=O)c1ccc(-c2csc(Br)c2-c2ccc(F)cc2)cc1 [Example 2, 4-(4-Methylsulfonylphenyl)-3-(4-fluorophenyl)-2-bromothiophene]
- RAT PAW EDEMA % Inhibition (carrageenan foot edema): 30%
- ANALGESIA % Inhibition ([2]; @3 mpk): 0%

Structure (SMILES): CS(=O)(=O)c1ccc(-c2c(Br)sc(Br)c2-c2ccc(F)cc2)cc1 [Example 3, 4-(4-Methylsulfonylphenyl)-3-(4-fluorophenyl)-2,5-dibromothiophene]
- IC50 (Murine COX I): 100 µM

Structure (SMILES): COc1ccc(-c2cscc2-c2ccc(OC)cc2)cc1 [Example 4, 3,4-Bis(4-methoxyphenyl)thiophene]
- RAT PAW EDEMA % Inhibition (carrageenan foot edema): 22%

- IC50 (Murine COX II): 5.5 µM
- IC50 (Murine COX I): > 100 µM
Structure (SMILES): CCOC(=O)c1sc(C(=O)O)c(-c2ccc(F)cc2)c1-c1ccc(S(C)(=O)=O)cc1 [Example 8, 2-Ethoxycarbonyl-4-(4-fluorophenyl)-3-(4-methanesulfonylphenyl)-thienyl-5-carboxylic acid]

Structure (SMILES): CS(=O)(=O)c1ccc(-c2cscc2-c2ccc(F)nc2)cc1 [Example 14]
- RAT PAW EDEMA % Inhibition (carrageenan foot edema): 30%
- ANALGESIA % Inhibition ([2]; @ 20 mg/kg body weight): 28%

Structure (SMILES): Cc1cc(F)ccc1-c1cscc1-c1ccc(S(C)(=O)=O)cc1 [Example 15]
- RAT PAW EDEMA % Inhibition (carrageenan foot edema): 20%

Structure (SMILES): CS(=O)(=O)Nc1ccc([N+](=O)[O-])cc1OC1CCCCC1 [N-(2-cyclohexyloxy-4-nitrophenyl)methanesulfonamide]
- gastric side effects [3]: lacks gastric side effects
- antiinflammatory activity [1]: antiinflammatory

Structure (SMILES): CCOC(=O)CCc1scc(-c2ccccc2)c1-c1ccccc1 [ethyl 3,4-diphenylthiophene-2-propionate]
- antiinflammatory activity [1]: antiinflammatory activity
